Assay results from patent publication US20100130608A1, “COMPOSITIONS AND METHODS FOR REDUCING TRIGLYCERIDE LEVELS” (Martek Biosciences Corporation, priority 2008, published 2010).
Marks after values point to notes of the source that are not given here.

How the values were obtained:
male Wister rats [1] = experiment: Effect on triglyceride levels in high fructose diet rats; assay type: in vivo, rat; settings: for Triglycerides, mean: oral gavage, mean ± SD; for Serum triglycerides, LSMEAN: least squares mean
Description: The effect of the DHA ethyl ester (DHA-EE) produced according to the method of Example 2 on triglyceride levels was investigated using male Wister rats. The DHA-EE used in this example contained DHA at about 93.6% (w/w) of the total fatty acid content of the dosage form. The effect of purified DHA-EE was compared to two different DHA-containing products: DHASCO-T® (Martek Bioscience Corporation, Columbia, Md.) and Lovaza® (Reliant Pharmaceuticals, Inc., Durham, N.C.). DHASCO-T® comprises approximately 45% DHA and 55% other fatty acids (with substantially no EPA). Lovaza® comprises approximately 41.7% DHA ethyl ester, 51.7% EPA ethyl ester, and 6.4% other fatty acids. The vehicle control comprised corn oil. 84 Wistar rats were randomized into 7 groups of 12 rats each. Each rat was administered orally a high fructose diet for 4-5 weeks to raise triglyceride levels. After 4-5 weeks, rats with a triglyceride level <300 mg/dL were excluded. Then each rat was administered either (a) a vehicle control, (b) DHA ethyl ester (0.6 g/kg/day, 1.3 g/kg/day, 2.5 g/kg/day, or 5.0 g/kg/day), (c) DHASCO-T (5.0 g/kg/day), or (d) Lovaza (5.0 g/kg/day) for 28 days by oral gavage. Diets were controlled for calories, nutrients and levels of vitamin E. Triglyceride levels of the rats were measured at 14 days and 28 days. Triglyceride values shown are averages for each treatment group, presented as actual mean values.
The triglyceride results presented below in Table 8 are calculated from the same data set as in Table 7. Triglyceride values shown in Table 8 are averages for each treatment group, presented as least squares mean values.

male Wister rats [2] = experiment: Effect on total cholesterol levels in rats; assay type: in vivo, rat; settings: for Serum cholesterol, LSMEAN: least squares mean; for Serum cholesterol, mean: mean ± SD
Procedure: The effect of the DHA ethyl ester of Example 2 on cholesterol levels was investigated using male Wister rats, and was compared to DHASCO-T® and Lovaza®. The rats were administered either (a) a vehicle control, (b) DHA ethyl ester (0.6 g/kg/day, 1.3 g/kg/day, 2.5 g/kg/day, or 5.0 g/kg/day), (c) DHASCO-T (5.0 g/kg/day), or (d) Lovaza (5.0 g/kg/day) for 28 days. Cholesterol levels, i.e., total cholesterol, of the rats were measured at 14 days and 28 days. Total cholesterol values shown are averages for each treatment group, i.e., actual mean values.
The cholesterol results presented below in Table 10 are calculated from the same data set as in Table 9. Cholesterol level values shown in Table 10 are averages for each treatment group, presented as least squares mean values.

[3] = rat, in vivo
Description: The plasma DHA fatty acid area percent and plasma EPA fatty acid area percent were determine in the rats at day 1 and day 29 (post necropsy).

[4] = 14 day, 0.6 g/kg/day fatty acid
[5] = 14 day, 1.3 g/kg/day fatty acid
[6] = 14 day, 2.5 g/kg/day fatty acid
[7] = 14 day, 5.0 g/kg/day fatty acid
[8] = 28 day, 0.6 g/kg/day fatty acid
[9] = 28 day, 1.3 g/kg/day fatty acid
[10] = 28 day, 2.5 g/kg/day fatty acid
[11] = 28 day, 5.0 g/kg/day fatty acid

Plasma DHA fatty acid area percent (in words) [3]: correlates with increasing dosing of DHA
SMILES: CC/C=C\C/C=C\C/C=C\C/C=C\C/C=C\C/C=C\CCC(=O)OCC [DHA-EE, ethyl docosahexaenoate]
Serum triglycerides % of control, LSMEAN (male Wister rats [1]; [4]): 65 % of control
Triglycerides % of control, mean (male Wister rats [1]; [4]): 67 % of control
Triglycerides, mean (male Wister rats [1]; [4]): 176.5 ± 96.4 mg/dL
Serum triglycerides, LSMEAN (male Wister rats [1]; [4]): 168.4† mg/dL
Serum triglycerides % of control, LSMEAN (male Wister rats [1]; [5]): 67 % of control
Triglycerides % of control, mean (male Wister rats [1]; [5]): 66 % of control
Triglycerides, mean (male Wister rats [1]; [5]): 175.2 ± 50.6 mg/dL
Serum triglycerides, LSMEAN (male Wister rats [1]; [5]): 173.6† mg/dL
Serum triglycerides % of control, LSMEAN (male Wister rats [1]; [6]): 47 % of control
Triglycerides % of control, mean (male Wister rats [1]; [6]): 44 % of control
Triglycerides, mean (male Wister rats [1]; [6]): 115.5 ± 60.9 mg/dL
Serum triglycerides, LSMEAN (male Wister rats [1]; [6]): 120.2† mg/dL
Serum triglycerides % of control, LSMEAN (male Wister rats [1]; [7]): 43 % of control
Triglycerides % of control, mean (male Wister rats [1]; [7]): 37 % of control
Triglycerides, mean (male Wister rats [1]; [7]): 97.6 ± 47.8 mg/dL
Serum triglycerides, LSMEAN (male Wister rats [1]; [7]): 110.7† mg/dL
Serum triglycerides % of control, LSMEAN (male Wister rats [1]; [8]): 93 % of control
Triglycerides % of control, mean (male Wister rats [1]; [8]): 95 % of control
Triglycerides, mean (male Wister rats [1]; [8]): 182.7 ± 86.9 mg/dL
Serum triglycerides, LSMEAN (male Wister rats [1]; [8]): 174.5 mg/dL
Serum triglycerides % of control, LSMEAN (male Wister rats [1]; [9]): 60 % of control
Triglycerides % of control, mean (male Wister rats [1]; [9]): 60 % of control
Triglycerides, mean (male Wister rats [1]; [9]): 114.7 ± 37.2 mg/dL
Serum triglycerides, LSMEAN (male Wister rats [1]; [9]): 113.1† mg/dL
Serum triglycerides % of control, LSMEAN (male Wister rats [1]; [10]): 60 % of control
Triglycerides % of control, mean (male Wister rats [1]; [10]): 56 % of control
Triglycerides, mean (male Wister rats [1]; [10]): 107.9 ± 58.4 mg/dL
Serum triglycerides, LSMEAN (male Wister rats [1]; [10]): 112.6† mg/dL
Serum triglycerides % of control, LSMEAN (male Wister rats [1]; [11]): 47 % of control
Triglycerides % of control, mean (male Wister rats [1]; [11]): 41 % of control
Triglycerides, mean (male Wister rats [1]; [11]): 78.9 ± 46.5 mg/dL
Serum triglycerides, LSMEAN (male Wister rats [1]; [11]): 87.6† mg/dL
Effect on triglyceride levels (in words) (male Wister rats [1]; at 14 days, even at the lowest dosage level (0.6 g/kg/day)): reduces triglyceride levels
Triglyceride levels versus control (in words) (male Wister rats [1]; day 28, 0.6 g DHA-EE): not significantly lower than control
Serum cholesterol % of control, LSMEAN (male Wister rats [2]; [4]): 80 % of control
Serum cholesterol % of control, mean (male Wister rats [2]; [4]): 79 % of control
Serum cholesterol, LSMEAN (male Wister rats [2]; [4]): 72.4 mg/dL
Serum cholesterol, mean (male Wister rats [2]; [4]): 72.2 ± 17.7 mg/dL
Serum cholesterol % of control, LSMEAN (male Wister rats [2]; [5]): 82 % of control
Serum cholesterol % of control, mean (male Wister rats [2]; [5]): 82 % of control
Serum cholesterol, LSMEAN (male Wister rats [2]; [5]): 74.6 mg/dL
Serum cholesterol, mean (male Wister rats [2]; [5]): 75.0 ± 24.0 mg/dL
Serum cholesterol % of control, LSMEAN (male Wister rats [2]; [6]): 85 % of control
Serum cholesterol % of control, mean (male Wister rats [2]; [6]): 85 % of control
Serum cholesterol, LSMEAN (male Wister rats [2]; [6]): 77.4 mg/dL
Serum cholesterol, mean (male Wister rats [2]; [6]): 77.6 ± 23.1 mg/dL
Serum cholesterol % of control, LSMEAN (male Wister rats [2]; [7]): 75 % of control
Serum cholesterol % of control, mean (male Wister rats [2]; [7]): 74 % of control
Serum cholesterol, LSMEAN (male Wister rats [2]; [7]): 67.8 mg/dL
Serum cholesterol, mean (male Wister rats [2]; [7]): 67.1 ± 17.9 mg/dL
Serum cholesterol % of control, LSMEAN (male Wister rats [2]; [8]): 80 % of control
Serum cholesterol % of control, mean (male Wister rats [2]; [8]): 80 % of control
Serum cholesterol, LSMEAN (male Wister rats [2]; [8]): 80.6 mg/dL
Serum cholesterol, mean (male Wister rats [2]; [8]): 80.3 ± 21.8 mg/dL
Serum cholesterol % of control, LSMEAN (male Wister rats [2]; [9]): 62 % of control
Serum cholesterol % of control, mean (male Wister rats [2]; [9]): 62 % of control
Serum cholesterol, LSMEAN (male Wister rats [2]; [9]): 61.6† mg/dL
Serum cholesterol, mean (male Wister rats [2]; [9]): 62.0 ± 16.0 mg/dL
Serum cholesterol % of control, LSMEAN (male Wister rats [2]; [10]): 72 % of control
Serum cholesterol % of control, mean (male Wister rats [2]; [10]): 72 % of control
Serum cholesterol, LSMEAN (male Wister rats [2]; [10]): 71.3† mg/dL
Serum cholesterol, mean (male Wister rats [2]; [10]): 71.5 ± 17.8 mg/dL
Serum cholesterol % of control, LSMEAN (male Wister rats [2]; [11]): 60 % of control
Serum cholesterol % of control, mean (male Wister rats [2]; [11]): 60 % of control
Serum cholesterol, LSMEAN (male Wister rats [2]; [11]): 60.9† mg/dL
Serum cholesterol, mean (male Wister rats [2]; [11]): 60.2 ± 19.3 mg/dL
Effect on cholesterol levels (in words) (male Wister rats [2]; by 14 days, even at the lowest dosage level): reduces cholesterol levels
Plasma EPA fatty acid area percent (in words) [3]: does not increase in rats administered DHA-EE or DHASCO® to the same extent that it is increased in Lovaza®
